Reference: patent US20100035941A1, “METHODS FOR INCREASING BLOOD FLOW AND/OR PROMOTING TISSUE REGENERATION” (priority 2006, published 2010)
Read-outs that look alike come from different tables or passages of the source.

Tests used:
[1] = system: granulocyte macrophage (CFU-GM), erythroid (BFU-E), and multipotential (CFU-GEMM) progenitor cells; settings: mice; for Absolute Number Progenitors Per ML Blood, Methylcellulose Culture, BFU-E / Absolute Number Progenitors Per ML Blood, Methylcellulose Culture, CFU-GEMM / Absolute Number Progenitors Per ML Blood, Methylcellulose Culture, CFU-GM: 1 hour post administration; for Absolute Progenitors Per ML Blood, Methylcellulose Culture, BFU-E / Absolute Progenitors Per ML Blood, Methylcellulose Culture, CFU-GEMM / Absolute Progenitors Per ML Blood, Methylcellulose Culture, CFU-GM: single s.c. injection of 5 mg/Kg
Method: Progenitors were stimulated to form colonies in vitro with the combination of 1U/ml rhu Epo, 50 ng/ml rhu SLF, 5% Vol/Vol pokeweed mitogen mouse spleen cell conditioned medium (PWMSCM), and 0.1 mM hemin. Plates were scored 7 days after incubation.

[2] = system: nucleated cells per ml of blood; settings: average of 5 donors, s.c. 80 μg/kg
Method: Five healthy human volunteers having initial white blood cell counts of 4,500-7,500 cells/mm^3 were used in the study. […] Blood samples were obtained via catheter prior to the dose, and at various times up to 24 hours after dosing.
All progenitor cell results are based on the scoring of 3 culture plates per assay per point.

WBC = settings: Phase 1 study; single dose of 80 μg/kg; cited from earlier work
[3] = system: circulating CD34+ progenitor/stem cells; settings: Phase 1 study; single dose of 80 μg/kg; 6 hour time point; cited from earlier work
[4] = single s.c. injection 2.5 mg/kg

c1cc(CN2CCCNCCNCCCNCC2)ccc1CN1CCCNCCNCCCNCC1 [AMD3100, 1,1′-[1,4-phenylene-bis(methylene)]-bis-1,4,8,11-tetraazacyclotetradecane]
Fold Change Compared to Time 0, Progenitors, Methylcellulose Culture, BFU-E ([1]; Time 2′): 2.07 | Fold Change Compared to Time 0, Progenitors, Methylcellulose Culture, CFU-GEMM ([1]; Time 2′): 1.85 | Fold Change Compared to Time 0, Progenitors, Methylcellulose Culture, GM ([1]; Time 2′): 2.86 | Fold Change Compared to Time 0, Progenitors, Methylcellulose Culture, BFU-E ([1]; Time 15″): 2.72 | Fold Change Compared to Time 0, Progenitors, Methylcellulose Culture, CFU-GEMM ([1]; Time 15″): 3.51 | Fold Change Compared to Time 0, Progenitors, Methylcellulose Culture, GM ([1]; Time 15″): 2.73 | Fold Change Compared to Time 0, Progenitors, Methylcellulose Culture, BFU-E ([1]; Time 30″): 4.24 | Fold Change Compared to Time 0, Progenitors, Methylcellulose Culture, CFU-GEMM ([1]; Time 30″): 4.41 | Fold Change Compared to Time 0, Progenitors, Methylcellulose Culture, GM ([1]; Time 30″): 6.23 | Absolute Number Progenitors Per ML Blood, Methylcellulose Culture, BFU-E ([1]; single s.c. injection 1 mg/kg): 62 Per ML Blood | Absolute Number Progenitors Per ML Blood, Methylcellulose Culture, CFU-GEMM ([1]; single s.c. injection 1 mg/kg): 27.1 Per ML Blood | Absolute Number Progenitors Per ML Blood, Methylcellulose Culture, CFU-GM ([1]; single s.c. injection 1 mg/kg): 424 Per ML Blood | Absolute Number Progenitors Per ML Blood, Methylcellulose Culture, BFU-E [1, 4]: 98.9 Per ML Blood | Absolute Number Progenitors Per ML Blood, Methylcellulose Culture, CFU-GEMM [1, 4]: 70.6 Per ML Blood | Absolute Number Progenitors Per ML Blood, Methylcellulose Culture, CFU-GM [1, 4]: 687.6 Per ML Blood | Absolute Number Progenitors Per ML Blood, Methylcellulose Culture, BFU-E ([1]; single s.c. injection 5 mg/kg): 92.8 Per ML Blood | Absolute Number Progenitors Per ML Blood, Methylcellulose Culture, CFU-GEMM ([1]; single s.c. injection 5 mg/kg): 69.5 Per ML Blood | Absolute Number Progenitors Per ML Blood, Methylcellulose Culture, CFU-GM ([1]; single s.c. injection 5 mg/kg): 608.4 Per ML Blood | Absolute Number Progenitors Per ML Blood, Methylcellulose Culture, BFU-E ([1]; single s.c. injection 10 mg/kg): 120.5 Per ML Blood | Absolute Number Progenitors Per ML Blood, Methylcellulose Culture, CFU-GEMM ([1]; single s.c. injection 10 mg/kg): 79.8 Per ML Blood | Absolute Number Progenitors Per ML Blood, Methylcellulose Culture, CFU-GM ([1]; single s.c. injection 10 mg/kg): 825.6 Per ML Blood | Absolute Progenitors Per ML Blood, Methylcellulose Culture, BFU-E ([1]; 15″): 134.5 Per ML Blood | Absolute Progenitors Per ML Blood, Methylcellulose Culture, CFU-GEMM ([1]; 15″): 90.4 Per ML Blood | Absolute Progenitors Per ML Blood, Methylcellulose Culture, CFU-GM ([1]; 15″): 791.6 Per ML Blood | Absolute Progenitors Per ML Blood, Methylcellulose Culture, BFU-E ([1]; 30″): 209.3 Per ML Blood | Absolute Progenitors Per ML Blood, Methylcellulose Culture, CFU-GEMM ([1]; 30″): 113.5 Per ML Blood | Absolute Progenitors Per ML Blood, Methylcellulose Culture, CFU-GM ([1]; 30″): 1805.5 Per ML Blood | Absolute Progenitors Per ML Blood, Methylcellulose Culture, BFU-E ([1]; 120″): 102.3 Per ML Blood | Absolute Progenitors Per ML Blood, Methylcellulose Culture, CFU-GEMM ([1]; 120″): 47.6 Per ML Blood | Absolute Progenitors Per ML Blood, Methylcellulose Culture, CFU-GM ([1]; 120″): 528.7 Per ML Blood | Fold Change Compared to TIME = 0, nucleated cellularity PBL-LD, MEAN ([2]; T = 1 hour): 1.86 | Fold Change Compared to TIME = 0, nucleated cellularity PBL-US, MEAN ([2]; T = 1 hour): 1.69 | nucleated cellularity PBL-LD, % CHG ([2]; T = 1 hour): 86.2% | nucleated cellularity PBL-US, % CHG ([2]; T = 1 hour): 68.6% | Fold Change Compared to TIME = 0, nucleated cellularity PBL-LD, MEAN ([2]; T = 3 hours): 2.86 | Fold Change Compared to TIME = 0, nucleated cellularity PBL-US, MEAN ([2]; T = 3 hours): 2.80 | nucleated cellularity PBL-LD, % CHG ([2]; T = 3 hours): 185.6% | nucleated cellularity PBL-US, % CHG ([2]; T = 3 hours): 180.2% | Fold Change Compared to TIME = 0, nucleated cellularity PBL-LD, MEAN ([2]; T = 6 hours): 3.66 | Fold Change Compared to TIME = 0, nucleated cellularity PBL-US, MEAN ([2]; T = 6 hours): 3.26 | nucleated cellularity PBL-LD, % CHG ([2]; T = 6 hours): 266.3% | nucleated cellularity PBL-US, % CHG ([2]; T = 6 hours): 225.8% | Fold Change Compared to TIME = 0, nucleated cellularity PBL-LD, MEAN ([2]; T = 9 hours): 3.64 | Fold Change Compared to TIME = 0, nucleated cellularity PBL-US, MEAN ([2]; T = 9 hours): 3.09 | nucleated cellularity PBL-LD, % CHG ([2]; T = 9 hours): 264.3% | nucleated cellularity PBL-US, % CHG ([2]; T = 9 hours): 209.4% | Fold Change Compared to TIME = 0, nucleated cellularity PBL-LD, MEAN ([2]; T = 24 hours): 1.05 | Fold Change Compared to TIME = 0, nucleated cellularity PBL-US, MEAN ([2]; T = 24 hours): 1.07 | nucleated cellularity PBL-LD, % CHG ([2]; T = 24 hours): 4.6% | nucleated cellularity PBL-US, % CHG ([2]; T = 24 hours): 7.0% | WBC count (WBC): 17,000 /μl | peak increase in circulating CD34+ progenitor/stem cells [3]: 6 fold
